Measurements: patent publication US8846653B2, “Delta-tocotrienol treatment and prevention of pancreatic cancer” (University of South Florida, priority 2006, dated 2014)

What was measured:
Format in all cases: cell-based, human
[1] = tested on: SW1990 pancreatic cancer cells; test: MTS assay of SW1990 cultures, single 50 μM dose; settings: SW1990, 50 μM
Method: SW1990 pancreatic cancer cells […] were cultured in complete DMEM media containing 10% fetal bovine serum (FBS) and 1% penicillin-streptomycin, and 1% L-glutamine. BxPc-3 pancreatic cancer cells were cultured in complete RPMI media containing 10% fetal bovine serum (FBS), and 1% penicillin-streptomycin, 1% HEPES buffer, 1% sodium pyruvate and 1% L-glutamine. HPDE6-C7 cells were cultured in serum-free keratinocyte SFM media. All cells were maintained at 37° C. in a humidified incubator with 5% CO2. The cells were treated with a single 50 μM dose of vehicle (ethanol extracted olive oil), T3 alpha (alpha tocotrienol), T3 beta (beta tocotrienol), T3 gamma (gamma tocotrienol), T3 delta (delta tocotrienol), T alpha (alpha tocopherol), T beta (beta tocopherol), TS (tocopherol succinate), GG (geranylgeraniol), SA (succinic acid). A control culture (i.e., only vehicle with no treatment) was grown alongside the treatments for comparison. Cell viability was measured using MTS assay at preselect times of 24, 48, or 72 hours after treatment.

BXPC3 cells = test: MTT assay of BXPC3 cultures, single 50 μM dose; set-up: MTT assay result, run 1 / MTT assay result, run 2 / MTT assay result, run 3 / MTT assay result, run 4 / MTT assay result, run 5 / MTT assay result, run 6 / MTT assay result, run 7 / MTT assay result, av (average) / MTT assay result, av-blank / MTT assay result, av: unit not given here; settings: BXPC3, 50 μM; for MTT assay result, av-blank: average minus blank; for MTT assay result, av (average) / MTT assay result, av: average of 7 runs
Method: BXPC3 cells were cultured in complete […] media containing 10% fetal bovine serum (FBS) and 1% penicillin-streptomycin, and 1% L-glutamine. BxPc-3 pancreatic cancer cells were cultured in complete RPMI media containing 10% fetal bovine serum (FBS), and 1% penicillin-streptomycin, 1% HEPES buffer, 1% sodium pyruvate and 1% L-glutamine HPDE6-C7 cells were cultured in serum-free keratinocyte SFM media. All cells were maintained at 37° C. in a humidified incubator with 5% CO2. The cells were treated with a single 50 μM dose of vehicle (vehicle only, may be a solvent), T3 alpha (alpha tocotrienol), T3 beta (beta tocotrienol), T3 gamma (gamma tocotrienol), T3 delta (delta tocotrienol), T alpha (alpha tocopherol), T beta (beta tocopherol), TS (tocopherol succinate), GG (geranylgeraniol), SA (succinic acid). A control (no treatment) culture was grown alongside the treatments for comparison. Cell viability was measured using MTT assay at preselect times of 48 or 120 hours after treatment.

MiaPaCa-2 cells = test: MTT assay of MiaPaCa2 cultures, single 50 μM dose; set-up: rel amt (relative value set to the control): unit not given here; settings: MiaPaCa2, 50 μM; for MTT assay result, av-blank: average minus blank; for MTT assay result, av: average of 7 runs
Method: MiaPaCa-2, BxPc-3, and HPDE6-C7 cells were cultured as described above, and treated with a single 50 μM dose of vehicle (ethanol extracted olive oil), T3 alpha (alpha tocotrienol), T3 beta (beta tocotrienol), T3 gamma (gamma tocotrienol), T3 delta (delta tocotrienol), T alpha (alpha tocopherol), T beta (beta tocopherol), TS (tocopherol succinate), GG (geranylgeraniol), SA (succinic acid). A control culture (vehicle only with no treatment) was grown alongside the treatments for comparison. Cell viability was measured using MTT assay at preselect times of 48 or 120 hours after treatment.

CC(C)=CCC/C(C)=C/CC/C(C)=C/CC[C@]1(C)CCc2cc(O)c(C)c(C)c2O1 [T3 gamma, gamma tocotrienol]
rel amnt (relative value set to the control) ([1]; 24 hours): 107 | MTS assay result, run 1 ([1]; 24 hours): 0.169 | MTS assay result, run 2 ([1]; 24 hours): 0.161 | MTS assay result, run 3 ([1]; 24 hours): 0.163 | MTS assay result, run 4 ([1]; 24 hours): 0.143 | MTS assay result, run 5 ([1]; 24 hours): 0.15 | MTS assay result, run 6 ([1]; 24 hours): 0.158 | MTS assay result, run 7 ([1]; 24 hours): 0.159 | MTS assay result, run 8 ([1]; 24 hours): 0.151 | MTS assay result, run 9 ([1]; 24 hours): 0.157 | rel amnt (relative value set to the control) ([1]; 48 hours): 89 | MTS assay result, run 1 ([1]; 48 hours): 0.114 | MTS assay result, run 2 ([1]; 48 hours): 0.125 | MTS assay result, run 3 ([1]; 48 hours): 0.13 | MTS assay result, run 4 ([1]; 48 hours): 0.123 | MTS assay result, run 5 ([1]; 48 hours): 0.137 | MTS assay result, run 6 ([1]; 48 hours): 0.137 | MTS assay result, run 7 ([1]; 48 hours): 0.16 | MTS assay result, run 8 ([1]; 48 hours): 0.16 | MTS assay result, run 9 ([1]; 48 hours): 0.135 | rel amnt (relative value set to the control) ([1]; 72 hours): 177 | MTS assay result, run 1 ([1]; 72 hours): 0.776 | MTS assay result, run 2 ([1]; 72 hours): 0.744 | MTS assay result, run 3 ([1]; 72 hours): 0.88 | MTS assay result, run 4 ([1]; 72 hours): 0.734 | MTS assay result, run 5 ([1]; 72 hours): 0.812 | MTS assay result, run 6 ([1]; 72 hours): 0.817 | MTS assay result, run 7 ([1]; 72 hours): 0.77 | MTS assay result, run 8 ([1]; 72 hours): 0.759 | MTS assay result, run 9 ([1]; 72 hours): 0.786 | rel amt (relative value set to the control) (BXPC3 cells; 48 hours): 99 | MTT assay result, av-blank (BXPC3 cells; 48 hours): 0.226 | MTT assay result, av (average) (BXPC3 cells; 48 hours): 0.275 | MTT assay result, run 1 (BXPC3 cells; 48 hours): 0.259 | MTT assay result, run 2 (BXPC3 cells; 48 hours): 0.257 | MTT assay result, run 3 (BXPC3 cells; 48 hours): 0.289 | MTT assay result, run 4 (BXPC3 cells; 48 hours): 0.279 | MTT assay result, run 5 (BXPC3 cells; 48 hours): 0.268 | MTT assay result, run 6 (BXPC3 cells; 48 hours): 0.292 | MTT assay result, run 7 (BXPC3 cells; 48 hours): 0.283 | rel amt (relative value set to the control) (BXPC3 cells; 120 hours (5 days)): 66 | MTT assay result, av-blank (BXPC3 cells; 120 hours (5 days)): 0.377 | MTT assay result, av (BXPC3 cells; 120 hours (5 days)): 0.432 | MTT assay result, run 1 (BXPC3 cells; 120 hours (5 days)): 0.418 | MTT assay result, run 2 (BXPC3 cells; 120 hours (5 days)): 0.446 | MTT assay result, run 3 (BXPC3 cells; 120 hours (5 days)): 0.446 | MTT assay result, run 4 (BXPC3 cells; 120 hours (5 days)): 0.457 | MTT assay result, run 5 (BXPC3 cells; 120 hours (5 days)): 0.428 | MTT assay result, run 6 (BXPC3 cells; 120 hours (5 days)): 0.412 | MTT assay result, run 7 (BXPC3 cells; 120 hours (5 days)): 0.42 | rel amt (relative value set to the control) (MiaPaCa-2 cells; 48 hours): 40 | MTT assay result, av-blank (MiaPaCa-2 cells; 48 hours): 0.124 | MTT assay result, av (MiaPaCa-2 cells; 48 hours): 0.170 | MTT assay result, run 1 (MiaPaCa-2 cells; 48 hours): 0.185 | MTT assay result, run 2 (MiaPaCa-2 cells; 48 hours): 0.181 | MTT assay result, run 3 (MiaPaCa-2 cells; 48 hours): 0.156 | MTT assay result, run 4 (MiaPaCa-2 cells; 48 hours): 0.183 | MTT assay result, run 5 (MiaPaCa-2 cells; 48 hours): 0.21 | MTT assay result, run 6 (MiaPaCa-2 cells; 48 hours): 0.141 | MTT assay result, run 7 (MiaPaCa-2 cells; 48 hours): 0.137 | rel amt (relative value set to the control) (MiaPaCa-2 cells; 120 hours (5 days)): 2 | MTT assay result, av-blank (MiaPaCa-2 cells; 120 hours (5 days)): 0.042 | MTT assay result, av (MiaPaCa-2 cells; 120 hours (5 days)): 0.094 | MTT assay result, run 1 (MiaPaCa-2 cells; 120 hours (5 days)): 0.088 | MTT assay result, run 2 (MiaPaCa-2 cells; 120 hours (5 days)): 0.084 | MTT assay result, run 3 (MiaPaCa-2 cells; 120 hours (5 days)): 0.098 | MTT assay result, run 4 (MiaPaCa-2 cells; 120 hours (5 days)): 0.089 | MTT assay result, run 5 (MiaPaCa-2 cells; 120 hours (5 days)): 0.12 | MTT assay result, run 6 (MiaPaCa-2 cells; 120 hours (5 days)): 0.084 | MTT assay result, run 7 (MiaPaCa-2 cells; 120 hours (5 days)): 0.092

Cc1c(C)c2c(c(C)c1O)CC[C@@](C)(CCC[C@H](C)CCC[C@H](C)CCCC(C)C)O2 [T alpha, alpha tocopherol]
rel amnt (relative value set to the control) ([1]; 24 hours): 122 | MTS assay result, run 1 ([1]; 24 hours): 0.188 | MTS assay result, run 2 ([1]; 24 hours): 0.183 | MTS assay result, run 3 ([1]; 24 hours): 0.189 | MTS assay result, run 4 ([1]; 24 hours): 0.166 | MTS assay result, run 5 ([1]; 24 hours): 0.183 | MTS assay result, run 6 ([1]; 24 hours): 0.181 | MTS assay result, run 7 ([1]; 24 hours): 0.186 | MTS assay result, run 8 ([1]; 24 hours): 0.16 | MTS assay result, run 9 ([1]; 24 hours): 0.180 | rel amnt (relative value set to the control) ([1]; 48 hours): 107 | MTS assay result, run 1 ([1]; 48 hours): 0.172 | MTS assay result, run 2 ([1]; 48 hours): 0.17 | MTS assay result, run 3 ([1]; 48 hours): 0.16 | MTS assay result, run 4 ([1]; 48 hours): 0.154 | MTS assay result, run 5 ([1]; 48 hours): 0.154 | MTS assay result, run 6 ([1]; 48 hours): 0.167 | MTS assay result, run 7 ([1]; 48 hours): 0.18 | MTS assay result, run 8 ([1]; 48 hours): 0.146 | MTS assay result, run 9 ([1]; 48 hours): 0.163 | rel amnt (relative value set to the control) ([1]; 72 hours): 103 | MTS assay result, run 1 ([1]; 72 hours): 0.523 | MTS assay result, run 2 ([1]; 72 hours): 0.478 | MTS assay result, run 3 ([1]; 72 hours): 0.46 | MTS assay result, run 4 ([1]; 72 hours): 0.453 | MTS assay result, run 5 ([1]; 72 hours): 0.443 | MTS assay result, run 6 ([1]; 72 hours): 0.456 | MTS assay result, run 7 ([1]; 72 hours): 0.38 | MTS assay result, run 8 ([1]; 72 hours): 0.451 | MTS assay result, run 9 ([1]; 72 hours): 0.456 | rel amt (relative value set to the control) (BXPC3 cells; 48 hours): 120 | MTT assay result, av-blank (BXPC3 cells; 48 hours): 0.274 | MTT assay result, av (average) (BXPC3 cells; 48 hours): 0.323 | MTT assay result, run 1 (BXPC3 cells; 48 hours): 0.333 | MTT assay result, run 2 (BXPC3 cells; 48 hours): 0.328 | MTT assay result, run 3 (BXPC3 cells; 48 hours): 0.352 | MTT assay result, run 4 (BXPC3 cells; 48 hours): 0.296 | MTT assay result, run 5 (BXPC3 cells; 48 hours): 0.3 | MTT assay result, run 6 (BXPC3 cells; 48 hours): 0.341 | MTT assay result, run 7 (BXPC3 cells; 48 hours): 0.312 | rel amt (relative value set to the control) (BXPC3 cells; 120 hours (5 days)): 106 | MTT assay result, av-blank (BXPC3 cells; 120 hours (5 days)): 0.611 | MTT assay result, av (BXPC3 cells; 120 hours (5 days)): 0.666 | MTT assay result, run 1 (BXPC3 cells; 120 hours (5 days)): 0.657 | MTT assay result, run 2 (BXPC3 cells; 120 hours (5 days)): 0.642 | MTT assay result, run 3 (BXPC3 cells; 120 hours (5 days)): 0.666 | MTT assay result, run 4 (BXPC3 cells; 120 hours (5 days)): 0.659 | MTT assay result, run 5 (BXPC3 cells; 120 hours (5 days)): 0.705 | MTT assay result, run 6 (BXPC3 cells; 120 hours (5 days)): 0.66 | MTT assay result, run 7 (BXPC3 cells; 120 hours (5 days)): 0.672 | rel amt (relative value set to the control) (MiaPaCa-2 cells; 48 hours): 95 | MTT assay result, av-blank (MiaPaCa-2 cells; 48 hours): 0.296 | MTT assay result, av (MiaPaCa-2 cells; 48 hours): 0.342 | MTT assay result, run 1 (MiaPaCa-2 cells; 48 hours): 0.365 | MTT assay result, run 2 (MiaPaCa-2 cells; 48 hours): 0.352 | MTT assay result, run 3 (MiaPaCa-2 cells; 48 hours): 0.339 | MTT assay result, run 4 (MiaPaCa-2 cells; 48 hours): 0.338 | MTT assay result, run 5 (MiaPaCa-2 cells; 48 hours): 0.35 | MTT assay result, run 6 (MiaPaCa-2 cells; 48 hours): 0.297 | MTT assay result, run 7 (MiaPaCa-2 cells; 48 hours): 0.35 | rel amt (relative value set to the control) (MiaPaCa-2 cells; 120 hours (5 days)): 89 | MTT assay result, av-blank (MiaPaCa-2 cells; 120 hours (5 days)): 1.604 | MTT assay result, av (MiaPaCa-2 cells; 120 hours (5 days)): 1.656 | MTT assay result, run 1 (MiaPaCa-2 cells; 120 hours (5 days)): 1.56 | MTT assay result, run 2 (MiaPaCa-2 cells; 120 hours (5 days)): 1.647 | MTT assay result, run 3 (MiaPaCa-2 cells; 120 hours (5 days)): 1.59 | MTT assay result, run 4 (MiaPaCa-2 cells; 120 hours (5 days)): 1.619 | MTT assay result, run 5 (MiaPaCa-2 cells; 120 hours (5 days)): 2.059 | MTT assay result, run 6 (MiaPaCa-2 cells; 120 hours (5 days)): 1.526 | MTT assay result, run 7 (MiaPaCa-2 cells; 120 hours (5 days)): 1.588
